# Measurements from ChEMBL document CHEMBL1201861, “Genomics of Drug Sensitity in Cancer screening data, Wellcome Trust Sanger Institute”.
# Experiments:
# Assay in all cases: cells
# SK-MEL-30 = type: functional, cell-based; conditions: Homo sapiens;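 also: growth inhibition of SK-MEL-30 cells, determined with a cell viability assay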
# Description: SANGER: Inhibition of human SK-MEL-30 cell growth in a cell viability assay.
# MFE-280 = type: functional, cell-based, Homo sapiens; conditions: Homo sapiens, MFE-280;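 also: growth inhibition of MFE-280 cells, determined with a cell viability readout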
# Description: SANGER: Inhibition of human MFE-280 cell growth in a cell viability assay.
# KURAMOCHI = type: functional, cell-based; conditions: Homo sapiens;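 also: growth inhibition of KURAMOCHI cells, read out with a cell viability assay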
# Description: SANGER: Inhibition of human KURAMOCHI cell growth in a cell viability assay.
# U2OS = type: functional, cell-based, Homo sapiens, U-2-OS; conditions: Homo sapiens, U2OS;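 also: growth inhibition of human U-2-OS cells, determined with a cell viability assay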
# Description: SANGER: Inhibition of human U-2-OS cell growth in a cell viability assay.
# ACHN = type: functional, cell-based, Homo sapiens; conditions: Homo sapiens, ACHN;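 also: cell viability read-out used to gauge how strongly growth of human ACHN cells is suppressed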
# Description: SANGER: Inhibition of human ACHN cell growth in a cell viability assay.
# SAOS-2 = type: functional, cell-based, Homo sapiens; conditions: Homo sapiens, SAOS-2;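 also: growth inhibition of human Saos-2 cells determined by a cell viability assay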
# Description: SANGER: Inhibition of human Saos-2 cell growth in a cell viability assay.
# EFM-19 = type: functional, cell-based, Homo sapiens; conditions: Homo sapiens, EFM-19;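 also: growth inhibition of human EFM-19 cells, measured in a cell viability assay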
# Description: SANGER: Inhibition of human EFM-19 cell growth in a cell viability assay.
# KYSE-150 cell line = type: functional, cell-based, Homo sapiens; conditions: Homo sapiens, KYSE-150;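 also: growth inhibition of human KYSE-150 cells, read out with a cell viability assay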
# Description: SANGER: Inhibition of human KYSE-150 cell growth in a cell viability assay.
# BT-20 = type: functional, cell-based, Homo sapiens; conditions: Homo sapiens, BT-20;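 also: cell viability assay measuring suppression of growth in human BT-20 cells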
# Description: SANGER: Inhibition of human BT-20 cell growth in a cell viability assay.
# NCI-H446 = type: functional, cell-based; conditions: Homo sapiens;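 also: growth inhibition of NCI-H446 cells determined by a cell viability assay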
# Description: SANGER: Inhibition of human NCI-H446 cell growth in a cell viability assay.
# NCI-H2342 = type: functional, cell-based; conditions: Homo sapiens;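 also: growth inhibition of the cancer cell line, determined with a cell viability assay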
# Description: SANGER: Inhibition of human NCI-H2342 cell growth in a cell viability assay.
# HEL = type: functional, cell-based, Homo sapiens; conditions: Homo sapiens, HEL;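 also: growth inhibition of HEL cells, read out with a cell viability assay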
# Description: SANGER: Inhibition of human HEL cell growth in a cell viability assay.
# A101D = type: functional, cell-based, Homo sapiens; conditions: Homo sapiens, A101D;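 also: growth inhibition of the cell line, measured with a viability assay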
# Description: SANGER: Inhibition of human A101D cell growth in a cell viability assay.
# LS-411N = type: functional, cell-based, Homo sapiens; conditions: Homo sapiens, LS-411N
# SW837 = type: functional, cell-based, Homo sapiens; conditions: Homo sapiens, SW837;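 also: growth inhibition of SW837 cells, determined with a cell viability assay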
# Description: SANGER: Inhibition of human SW837 cell growth in a cell viability assay.
# SBC-1 = type: functional, cell-based; conditions: Homo sapiens;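 also: cell viability assay measuring growth inhibition of the SBC-1 cell line, IC50 being the concentration that halves growth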
# Description: SANGER: Inhibition of human SBC-1 cell growth in a cell viability assay.
# JVM-2 = type: functional, cell-based; conditions: Homo sapiens;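 also: growth inhibition of JVM-2 cells determined by a cell viability assay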
# Description: SANGER: Inhibition of human JVM-2 cell growth in a cell viability assay.
# HOP-92 = type: functional, cell-based, Homo sapiens; conditions: Homo sapiens, HOP-92;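 also: cell viability readout, with IC50 reflecting inhibition of HOP-92 cell growth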
# Description: SANGER: Inhibition of human HOP-92 cell growth in a cell viability assay.
# NCI-H1623 = type: functional, cell-based, Homo sapiens; conditions: Homo sapiens, NCI-H1623;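 also: cell viability assay used as the read-out for growth inhibition of NCI-H1623 cells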
# Description: SANGER: Inhibition of human NCI-H1623 cell growth in a cell viability assay.
# SNU-387 = type: functional, cell-based, Homo sapiens; conditions: Homo sapiens, SNU-387
# Description: SANGER: Inhibition of human SNU-387 cell growth in a cell viability assay.
# MFM-223 = type: functional, cell-based, Homo sapiens; conditions: Homo sapiens, MFM-223
# Description: SANGER: Inhibition of human MFM-223 cell growth in a cell viability assay.
# VM-CUB-1 = type: functional, cell-based; conditions: Homo sapiens;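 also: cell viability assay measuring growth inhibition of the human VM-CUB-1 cell line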
# Description: SANGER: Inhibition of human VM-CUB-1 cell growth in a cell viability assay.
# HT-144 = type: functional, cell-based, Homo sapiens; conditions: Homo sapiens, HT-144
# Description: SANGER: Inhibition of human HT-144 cell growth in a cell viability assay.
# ES6 = type: functional, cell-based, Homo sapiens; conditions: Homo sapiens, ES6;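 also: growth inhibition of human ES6 cells, read out with a cell viability assay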
# Description: SANGER: Inhibition of human ES6 cell growth in a cell viability assay.
# HCC1569 = type: functional, cell-based, Homo sapiens; conditions: Homo sapiens, HCC1569;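 also: growth inhibition of human HCC1569 cells, read out with a cell viability assay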
# Description: SANGER: Inhibition of human HCC1569 cell growth in a cell viability assay.
# NCI-H1650 = type: functional, cell-based, Homo sapiens; conditions: Homo sapiens, NCI-H1650;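 also: growth inhibition of human NCI-H1650 cells measured by a cell viability assay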
# Description: SANGER: Inhibition of human NCI-H1650 cell growth in a cell viability assay.
# LB2518-MEL = type: functional, cell-based, Homo sapiens; conditions: Homo sapiens, LB2518-MEL;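 also: growth inhibition of human LB2518-MEL cells, measured with a cell viability assay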
# Description: SANGER: Inhibition of human LB2518-MEL cell growth in a cell viability assay.
# DOHH-2 = type: functional, cell-based; conditions: Homo sapiens;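 also: growth inhibition of human DOHH-2 cells, read out with a cell viability assay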
# Description: SANGER: Inhibition of human DOHH-2 cell growth in a cell viability assay.
# JEG-3 = type: functional, cell-based, Homo sapiens; conditions: Homo sapiens, JEG-3;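 also: growth inhibition of human JEG-3 cells, read out with a cell viability assay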
# Description: SANGER: Inhibition of human JEG-3 cell growth in a cell viability assay.
# DB = type: functional, cell-based; conditions: Homo sapiens
# Description: SANGER: Inhibition of human DB cell growth in a cell viability assay.
# MZ1-PC = type: functional, cell-based, Homo sapiens; conditions: Homo sapiens, MZ1-PC;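 also: cell viability assay measuring growth inhibition of human MZ1-PC cells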
# Description: SANGER: Inhibition of human MZ1-PC cell growth in a cell viability assay.
# CTV-1 = type: functional, cell-based; conditions: Homo sapiens;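 also: growth inhibition of the cell line, read out with a cell viability assay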
# Description: SANGER: Inhibition of human CTV-1 cell growth in a cell viability assay.
# GI-1 = type: functional, cell-based, Homo sapiens; conditions: Homo sapiens, GI-1;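 also: growth inhibition of human GI-1 cells, measured with a cell viability readout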
# Description: SANGER: Inhibition of human GI-1 cell growth in a cell viability assay.
# SW1417 = type: functional, cell-based, Homo sapiens; conditions: Homo sapiens, SW1417;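 also: growth inhibition of human SW1417 cells, read out with a cell viability assay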
# Description: SANGER: Inhibition of human SW1417 cell growth in a cell viability assay.
# NMC-G1 = type: functional, cell-based, Homo sapiens; conditions: Homo sapiens, NMC-G1;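 also: growth inhibition of the NMC-G1 cell line, measured with a cell viability read-out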
# Description: SANGER: Inhibition of human NMC-G1 cell growth in a cell viability assay.
# KARPAS-45 = type: functional, cell-based; conditions: Homo sapiens;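 also: inhibition of cell line growth, read out through a viability assay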
# Description: SANGER: Inhibition of human KARPAS-45 cell growth in a cell viability assay.
# HSC-2 = type: functional, cell-based, Homo sapiens; conditions: Homo sapiens, HSC-2;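 also: growth inhibition of human HSC-2 cells, read out by a cell viability assay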
# Description: SANGER: Inhibition of human HSC-2 cell growth in a cell viability assay.
# NCI-H441 = type: functional, cell-based; conditions: Homo sapiens;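 also: growth inhibition of NCI-H441 cells, read out with a cell viability assay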
# Description: SANGER: Inhibition of human NCI-H441 cell growth in a cell viability assay.
# SNU-5 = type: functional, cell-based; conditions: Homo sapiens;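 also: cell viability readout used to measure growth inhibition in human NCI-SNU-5 cells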
# Description: SANGER: Inhibition of human NCI-SNU-5 cell growth in a cell viability assay.
# PFSK-1 = type: functional, cell-based, Homo sapiens; conditions: Homo sapiens, PFSK-1;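 also: cell viability assay measuring how strongly compounds suppress growth of human PFSK-1 cells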
# Description: SANGER: Inhibition of human PFSK-1 cell growth in a cell viability assay.
# KYSE-410 = type: functional, cell-based, Homo sapiens; conditions: Homo sapiens, KYSE-410;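 also: growth inhibition of KYSE-410 cells, measured through a cell viability readout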
# Description: SANGER: Inhibition of human KYSE-410 cell growth in a cell viability assay.
# SK-LU-1 = type: functional, cell-based, Homo sapiens; conditions: Homo sapiens, SK-LU-1;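 also: cell viability assay measuring growth inhibition of human SK-LU-1 cells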
# Description: SANGER: Inhibition of human SK-LU-1 cell growth in a cell viability assay.
# MN-60 = type: functional, cell-based; conditions: Homo sapiens;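 also: growth inhibition of the MN-60 cell line, determined with a cell viability assay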
# Description: SANGER: Inhibition of human MN-60 cell growth in a cell viability assay.
# OVCAR-4 = type: functional, cell-based, Homo sapiens; conditions: Homo sapiens, OVCAR-4;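 also: growth inhibition of human OVCAR-4 cells, measured with a cell viability assay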
# Description: SANGER: Inhibition of human OVCAR-4 cell growth in a cell viability assay.
# NCI-H1648 = type: functional, cell-based, Homo sapiens; conditions: Homo sapiens, NCI-H1648;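 also: cell viability assay measuring inhibition of NCI-H1648 cell growth, from the Sanger screening data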
# Description: SANGER: Inhibition of human NCI-H1648 cell growth in a cell viability assay.
# 8505C = type: functional, cell-based, Homo sapiens; conditions: Homo sapiens, 8505C
# Description: SANGER: Inhibition of human 8505C cell growth in a cell viability assay.
# IA-LM = type: functional, cell-based, Homo sapiens; conditions: Homo sapiens, IA-LM;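 also: cell viability assay measuring growth inhibition of human IA-LM cells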
# Description: SANGER: Inhibition of human IA-LM cell growth in a cell viability assay.
# ES4 = type: functional, cell-based, Homo sapiens; conditions: Homo sapiens, ES4;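 also: growth inhibition of human ES4 cells, read out by a cell viability assay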
# Description: SANGER: Inhibition of human ES4 cell growth in a cell viability assay.
# SW626 = type: functional, cell-based, Homo sapiens; conditions: Homo sapiens, SW626;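 also: growth inhibition of SW626 cells, measured with a cell viability assay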
# Description: SANGER: Inhibition of human SW626 cell growth in a cell viability assay.
# LCLC-97TM1 = type: functional, cell-based, Homo sapiens; conditions: Homo sapiens, LCLC-97TM1;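 also: cell viability assay measuring growth inhibition of human LCLC-97TM1 cells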
# Description: SANGER: Inhibition of human LCLC-97TM1 cell growth in a cell viability assay.
# HT = type: functional, cell-based; conditions: Homo sapiens
# Description: SANGER: Inhibition of human HT cell growth in a cell viability assay.
# NCI-H720 = type: functional, cell-based; conditions: Homo sapiens;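 also: growth inhibition of human NCI-H720 cells determined by a cell viability assay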
# Description: SANGER: Inhibition of human NCI-H720 cell growth in a cell viability assay.
# 8-MG-BA = type: functional, cell-based, Homo sapiens; conditions: Homo sapiens, 8-MG-BA;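 also: growth inhibition of 8-MG-BA cells, read out with a cell viability assay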
# Description: SANGER: Inhibition of human 8-MG-BA cell growth in a cell viability assay.
smiles,measurement,setting,value
CN(C)C/C=C/C(=O)Nc1cc2c(Nc3ccc(F)c(Cl)c3)ncnc2cc1O[C@H]1CCOC1 [AFATINIB],IC50,SK-MEL-30,> 500 nM
same,IC50,MFE-280,> 500 nM
same,IC50,KURAMOCHI,> 500 nM
same,IC50,U2OS,> 500 nM
same,IC50,ACHN,320 nM
same,IC50,SAOS-2,> 500 nM
same,IC50,EFM-19,> 500 nM
same,IC50,KYSE-150 cell line,> 500 nM
same,IC50,BT-20,> 500 nM
same,IC50,NCI-H446,> 500 nM
same,IC50,NCI-H2342,> 500 nM
same,IC50,HEL,> 500 nM
same,IC50,A101D,> 500 nM
same,IC50,LS-411N,> 500 nM
same,IC50,SW837,> 500 nM
same,IC50,SBC-1,190 nM
same,IC50,JVM-2,> 500 nM
same,IC50,HOP-92,> 500 nM
same,IC50,NCI-H1623,80.2 nM
same,IC50,SNU-387,> 500 nM
same,IC50,MFM-223,> 500 nM
same,IC50,VM-CUB-1,> 500 nM
same,IC50,HT-144,> 500 nM
same,IC50,ES6,> 500 nM
same,IC50,HCC1569,> 500 nM
same,IC50,NCI-H1650,> 500 nM
same,IC50,LB2518-MEL,> 500 nM
same,IC50,DOHH-2,> 500 nM
same,IC50,JEG-3,> 500 nM
same,IC50,DB,> 500 nM
same,IC50,MZ1-PC,> 500 nM
same,IC50,CTV-1,> 500 nM
same,IC50,GI-1,> 500 nM
same,IC50,SW1417,> 500 nM
same,IC50,NMC-G1,> 500 nM
same,IC50,KARPAS-45,16.7 nM
same,IC50,HSC-2,168 nM
same,IC50,NCI-H441,> 500 nM
same,IC50,SNU-5,> 500 nM
same,IC50,PFSK-1,> 500 nM
same,IC50,KYSE-410,> 500 nM
same,IC50,SK-LU-1,> 500 nM
same,IC50,MN-60,> 500 nM
same,IC50,OVCAR-4,> 500 nM
same,IC50,NCI-H1648,442 nM
same,IC50,8505C,> 500 nM
same,IC50,IA-LM,> 500 nM
same,IC50,ES4,> 500 nM
same,IC50,SW626,> 500 nM
same,IC50,LCLC-97TM1,> 500 nM
same,IC50,HT,> 500 nM
same,IC50,NCI-H720,53.2 nM
same,IC50,8-MG-BA,> 500 nM
COc1ccc(-c2ccc3c(N4CCOC[C@@H]4C)nc(N4CCOC[C@@H]4C)nc3n2)cc1CO [AZD-8055],IC50,SK-MEL-30,> 2000 nM
same,IC50,MFE-280,430 nM
same,IC50,KURAMOCHI,> 2000 nM
same,IC50,U2OS,760 nM
same,IC50,ACHN,1910 nM
same,IC50,SAOS-2,1820 nM
same,IC50,EFM-19,708 nM
same,IC50,KYSE-150 cell line,662 nM
same,IC50,BT-20,1220 nM
same,IC50,NCI-H446,1330 nM
same,IC50,NCI-H2342,> 2000 nM
same,IC50,HEL,1940 nM
same,IC50,A101D,490 nM
same,IC50,LS-411N,1150 nM
same,IC50,SW837,> 2000 nM
same,IC50,SBC-1,45.8 nM
same,IC50,JVM-2,> 2000 nM
same,IC50,HOP-92,> 2000 nM
same,IC50,NCI-H1623,763 nM
same,IC50,SNU-387,1520 nM
same,IC50,MFM-223,426 nM
same,IC50,VM-CUB-1,473 nM
same,IC50,HT-144,1170 nM
same,IC50,ES6,1360 nM
same,IC50,HCC1569,852 nM
same,IC50,NCI-H1650,> 2000 nM
same,IC50,LB2518-MEL,> 2000 nM
same,IC50,DOHH-2,793 nM
same,IC50,JEG-3,1580 nM
same,IC50,DB,500 nM
same,IC50,MZ1-PC,> 2000 nM
same,IC50,CTV-1,86.4 nM
same,IC50,GI-1,> 2000 nM
same,IC50,SW1417,> 2000 nM
same,IC50,NMC-G1,1310 nM
same,IC50,KARPAS-45,33.7 nM
same,IC50,HSC-2,1910 nM
same,IC50,NCI-H441,> 2000 nM
same,IC50,SNU-5,> 2000 nM
same,IC50,PFSK-1,830 nM
same,IC50,KYSE-410,1270 nM
same,IC50,SK-LU-1,392 nM
same,IC50,MN-60,678 nM
same,IC50,OVCAR-4,819 nM
same,IC50,NCI-H1648,702 nM
same,IC50,8505C,1290 nM
same,IC50,IA-LM,596 nM
same,IC50,ES4,453 nM
same,IC50,SW626,> 2000 nM
same,IC50,LCLC-97TM1,1410 nM
same,IC50,HT,294 nM
same,IC50,NCI-H720,29.4 nM
same,IC50,8-MG-BA,1980 nM
